Data reported in patent US10676485B2, “Macrocyclic MCL-1 inhibitors and methods of use” (AbbVie Inc., priority 2017, dated 2020).
Like-named read-outs stand apart in the source and are kept apart here.

Assays:
[1] = target: GST-MCL-1 (Homo sapiens (Human), UniProt Q07820); assay: TR-FRET MCL-1 binding assay (competition with probe F-Bak)
Protocol: For the assay, an acoustic dispenser was used to prepare dilution series from 10 mM test compounds in 100% DMSO and directly transfer 160 nL into low volume 384-well assay plates. 8 μL of a protein/probe/antibody mix was then added to each well resulting in final concentrations listed below: Test compound: 11 three-fold dilutions beginning at 25 μM
The samples were then mixed on a shaker for 1 minute and incubated for an additional 2 hours at room temperature. For each assay plate, a probe/antibody and protein/antibody/probe mixture were included as a negative and a positive control, respectively. Fluorescence was measured on the Envision (Perkin Elmer) using a 340/35 nm excitation filter and 520/525 (F-Bak) and 495/510 nm (Tb-labeled anti-his antibody) emission filters. […] The TR-FRET assay can be performed in the presence of varying concentrations of human serum (HS) or fetal bovine serum (FBS). Compounds were tested both without HS and in the presence of 10% HS.

[2] = system: AMO-1 human multiple myeloma tumor cell line; assay: AMO-1 cell viability assay (CellTiter-Glo); format: cell-based; conditions: AMO1, read-out: AMO-1 Viability IC50 (μM), 10% FBS, 24 hours of compound treatment
[3] = system: NCI-H929 human multiple myeloma tumor cell line; assay: NCI-H929 cell viability assay (CellTiter-Glo); format: cell-based; conditions: NCI-H929, read-out: H929 Viability IC50 (μM), 10% FBS, 24 hours of compound treatment
[4] = read-out: MCL-1 Binding Ki (nM, 10% HS), in the presence of 10% HS
[5] = without HS, read-out: MCL-1 Binding Ki

GST-MCL-1, sequence (Q07820 whole entry): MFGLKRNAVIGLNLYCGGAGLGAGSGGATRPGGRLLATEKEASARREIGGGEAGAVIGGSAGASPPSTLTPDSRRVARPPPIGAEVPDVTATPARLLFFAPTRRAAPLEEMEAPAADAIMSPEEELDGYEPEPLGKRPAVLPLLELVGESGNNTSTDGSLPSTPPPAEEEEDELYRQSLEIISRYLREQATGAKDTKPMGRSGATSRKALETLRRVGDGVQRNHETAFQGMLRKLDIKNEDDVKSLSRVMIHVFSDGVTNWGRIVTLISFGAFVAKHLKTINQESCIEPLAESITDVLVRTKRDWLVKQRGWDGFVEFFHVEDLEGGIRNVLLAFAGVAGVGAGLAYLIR

SMILES	Ki [1, 4]	Ki [1, 5]	IC50 [2]	IC50 [3]
Cc1c(Cl)c2c(Cl)c(C)c1-c1c(-c3ccc(F)cc3)sc3ncnc(c13)O[C@@H](C(=O)O)Cc1cc(ccc1OCc1ccnc(-c3ccc(OC[C@H]4COCCO4)cc3)n1)OC[C@@H](CN1CCN(C)CC1)O2 [Example 2, (7R,16R)-19,23-dichloro-10-{[2-(4-{[(2R)-1,4-dioxan-2-yl]methoxy}phenyl)pyrimidin-4-yl]methoxy}-1-(4-fluorophenyl)-20,22-dimethyl-16-[(4-methylpiperazin-1-yl)methyl]-7,8,15,16-tetrahydro-18,21-etheno-13,9-(metheno)-6,14,17-trioxa-2-thia-3,5-diazacyclononadeca[1,2,3-cd]indene-7-carboxylic acid]	1.04 nM	0.052 nM	0.00019 µM	0.0033 µM
Cc1c2ccc(c1Cl)O[C@H](CN1CCN(C)CC1)COc1ccc(OCc3ccnc(C4COCCO4)n3)c(c1)C[C@H](C(=O)O)Oc1ncnc3sc(-c4ccc(F)cc4)c-2c13 (stereo partly drawn) [Example 4, (7R,16R,21S)-19-chloro-10-{[2-(1,4-dioxan-2-yl)pyrimidin-4-yl]methoxy}-1-(4-fluorophenyl)-20-methyl-16-[(4-methylpiperazin-1-yl)methyl]-7,8,15,16-tetrahydro-18,21-etheno-13,9-(metheno)-6,14,17-trioxa-2-thia-3,5-diazacyclononadeca[1,2,3-cd]indene-7-carboxylic acid]	0.32 nM	0.055 nM	0.00273 µM	0.00572 µM
Cc1c(Cl)c2c(Cl)c(C)c1-c1c(-c3ccc(F)cc3)sc3ncnc(c13)O[C@@H](C(=O)O)Cc1cc(ccc1OCc1ccnc(-c3ccc(OC[C@H]4COCCO4)nc3)n1)OC[C@@H](CN1CCN(C)CC1)O2 [Example 5, (7R,16R)-19,23-dichloro-10-{[2-(6-{[(2R)-1,4-dioxan-2-yl]methoxy}pyridin-3-yl)pyrimidin-4-yl]methoxy}-1-(4-fluorophenyl)-20,22-dimethyl-16-[(4-methylpiperazin-1-yl)methyl]-7,8,15,16-tetrahydro-18,21-etheno-13,9-(metheno)-6,14,17-trioxa-2-thia-3,5-diazacyclononadeca[1,2,3-cd]indene-7-carboxylic acid]	0.71 nM	0.048 nM	0.000178 µM	0.00037 µM
Cc1c(Cl)c2c(Cl)c(C)c1-c1c(-c3ccc(F)cc3)sc3ncnc(c13)O[C@@H](C(=O)O)Cc1cc(ccc1OCc1ccnc(-c3ccc(OC[C@@H]4COCCO4)nc3)n1)OC[C@@H](CN1CCN(C)CC1)O2 [Example 6, (7R,16R)-19,23-dichloro-10-{[2-(6-{[(2S)-1,4-dioxan-2-yl]methoxy}pyridin-3-yl)pyrimidin-4-yl]methoxy}-1-(4-fluorophenyl)-20,22-dimethyl-16-[(4-methylpiperazin-1-yl)methyl]-7,8,15,16-tetrahydro-18,21-etheno-13,9-(metheno)-6,14,17-trioxa-2-thia-3,5-diazacyclononadeca[1,2,3-cd]indene-7-carboxylic acid]	6.09 nM	0.926 nM	0.000135 µM	0.000359 µM
Cc1c(Cl)c2c(Cl)c(C)c1-c1c(-c3ccc(F)cc3)sc3ncnc(c13)O[C@@H](C(=O)O)Cc1cc(ccc1OCc1ccnc([C@H]3CC[C@H](OC[C@H]4COCCO4)CC3)n1)OC[C@@H](CN1CCN(C)CC1)O2 [Example 9, (7R,16R)-19,23-dichloro-10-({2-[(1R,4r)-4-{[(2R)-1,4-dioxan-2-yl]methoxy}cyclohexyl]pyrimidin-4-yl}methoxy)-1-(4-fluorophenyl)-20,22-dimethyl-16-[(4-methylpiperazin-1-yl)methyl]-7,8,15,16-tetrahydro-18,21-etheno-13,9-(metheno)-6,14,17-trioxa-2-thia-3,5-diazacyclononadeca[1,2,3-cd]indene-7-carboxylic acid]	0.1 nM	0.005 nM	0.000165 µM	0.000245 µM
Cc1c(Cl)c2c(Cl)c(C)c1-c1c(-c3ccc(F)cc3)sc3ncnc(c13)O[C@@H](C(=O)O)Cc1cc(ccc1OCc1ccnc(N3CCC(OC[C@H]4COCCO4)CC3)n1)OC[C@@H](CN1CCN(C)CC1)O2 [Example 10, (7R,16R)-19,23-dichloro-10-{[2-(4-{[(2R)-1,4-dioxan-2-yl]methoxy}piperidin-1-yl)pyrimidin-4-yl]methoxy}-1-(4-fluorophenyl)-20,22-dimethyl-16-[(4-methylpiperazin-1-yl)methyl]-7,8,15,16-tetrahydro-18,21-etheno-13,9-(metheno)-6,14,17-trioxa-2-thia-3,5-diazacyclononadeca[1,2,3-cd]indene-7-carboxylic acid]	3.07 nM	0.346 nM	0.000502 µM	0.00217 µM
Cc1c(Cl)c2c(Cl)c(C)c1-c1c(-c3ccc(F)cc3)sc3ncnc(c13)O[C@@H](C(=O)O)Cc1cc(ccc1OCc1ccnc(C3(COC[C@H]4COCCO4)CCC3)n1)OC[C@@H](CN1CCN(C)CC1)O2 [Example 11, (7R,16R)-19,23-dichloro-10-({2-[1-({[(2S)-1,4-dioxan-2-yl]methoxy}methyl)cyclobutyl]pyrimidin-4-yl}methoxy)-1-(4-fluorophenyl)-20,22-dimethyl-16-[(4-methylpiperazin-1-yl)methyl]-7,8,15,16-tetrahydro-18,21-etheno-13,9-(metheno)-6,14,17-trioxa-2-thia-3,5-diazacyclononadeca[1,2,3-cd]indene-7-carboxylic acid]	–	–	0.000188 µM	0.000545 µM
Cc1c(Cl)c2c(Cl)c(C)c1-c1c(-c3ccc(F)cc3)sc3ncnc(c13)O[C@@H](C(=O)O)Cc1cc(ccc1OCc1ccnc(N3CC(COC[C@H]4COCCO4)C3)n1)OC[C@@H](CN1CCN(C)CC1)O2 [Example 12, (7R,16R)-19,23-dichloro-10-({2-[3-({[(2S)-1,4-dioxan-2-yl]methoxy}methyl)azetidin-1-yl]pyrimidin-4-yl}methoxy)-1-(4-fluorophenyl)-20,22-dimethyl-16-[(4-methylpiperazin-1-yl)methyl]-7,8,15,16-tetrahydro-18,21-etheno-9,13-(metheno)-6,14,17-trioxa-2-thia-3,5-diazacyclononadeca[1,2,3-cd]indene-7-carboxylic acid]	0.61 nM	0.076 nM	0.00104 µM	0.00208 µM
Cc1c(Cl)c2c(Cl)c(C)c1-c1c(-c3ccc(F)cc3)sc3ncnc(c13)O[C@@H](C(=O)O)Cc1cc(ccc1OCc1ccnc(N3CC(COC[C@@H]4COCCO4)C3)n1)OC[C@@H](CN1CCN(C)CC1)O2 [Example 13, (7R,16R)-19,23-dichloro-10-({2-[3-({[(2R)-1,4-dioxan-2-yl]methoxy}methyl)azetidin-1-yl]pyrimidin-4-yl}methoxy)-1-(4-fluorophenyl)-20,22-dimethyl-16-[(4-methylpiperazin-1-yl)methyl]-7,8,15,16-tetrahydro-18,21-etheno-9,13-(metheno)-6,14,17-trioxa-2-thia-3,5-diazacyclononadeca[1,2,3-cd]indene-7-carboxylic acid]	1.07 nM	0.079 nM	0.00126 µM	0.00311 µM
Cc1c(Cl)c2c(Cl)c(C)c1-c1c(-c3ccc(F)cc3)sc3ncnc(c13)O[C@@H](C(=O)O)Cc1cc(ccc1OCc1ccnc([C@H]3CC[C@H](OCC4COCO4)CC3)n1)OC[C@@H](CN1CCN(C)CC1)O2 (stereo partly drawn) [Example 14, (7R,16R)-19,23-dichloro-10-[(2-{(1r,4r)-4-[(1,3-dioxolan-4-yl)methoxy]cyclohexyl}pyrimidin-4-yl)methoxy]-1-(4-fluorophenyl)-20,22-dimethyl-16-[(4-methylpiperazin-1-yl)methyl]-7,8,15,16-tetrahydro-18,21-etheno-13,9-(metheno)-6,14,17-trioxa-2-thia-3,5-diazacyclononadeca[1,2,3-cd]indene-7-carboxylic acid]	0.09 nM	0.006 nM	0.000114 µM	0.000236 µM
Cc1c(Cl)c2c(Cl)c(C)c1-c1c(-c3ccc(F)cc3)sc3ncnc(c13)O[C@@H](C(=O)O)Cc1cc(ccc1OCc1ccnc([C@H]3CC[C@@H](OCC4COCCO4)CC3)n1)OC[C@@H](CN1CCN(C)CC1)O2 (stereo partly drawn) [Example 15, (7R,16R)-19,23-dichloro-10-[(2-{(1s,4s)-4-[(1,4-dioxan-2-yl)methoxy]cyclohexyl}pyrimidin-4-yl)methoxy]-1-(4-fluorophenyl)-20,22-dimethyl-16-[(4-methylpiperazin-1-yl)methyl]-7,8,15,16-tetrahydro-18,21-etheno-13,9-(metheno)-6,14,17-trioxa-2-thia-3,5-diazacyclononadeca[1,2,3-cd]indene-7-carboxylic acid]	0.15 nM	0.013 nM	0.000156 µM	0.000294 µM
Cc1c(Cl)c2c(Cl)c(C)c1-c1c(-c3ccc(F)cc3)sc3ncnc(c13)O[C@@H](C(=O)O)Cc1cc(ccc1OCc1cncc(-c3ccc(OC[C@H]4COCCO4)cc3)n1)OC[C@@H](CN1CCN(C)CC1)O2 [Example 16, (7R,16R)-19,23-dichloro-10-{[6-(4-{[(2R)-1,4-dioxan-2-yl]methoxy}phenyl)pyrazin-2-yl]methoxy}-1-(4-fluorophenyl)-20,22-dimethyl-16-[(4-methylpiperazin-1-yl)methyl]-7,8,15,16-tetrahydro-18,21-etheno-13,9-(metheno)-6,14,17-trioxa-2-thia-3,5-diazacyclononadeca[1,2,3-cd]indene-7-carboxylic acid]	0.83 nM	0.048 nM	0.000245 µM	0.000592 µM
